Measurements: PMC6155222, “3-Substituted N-Benzylpyrazine-2-carboxamide Derivatives: Synthesis, Antimycobacterial and Antibacterial Evaluation” (Molecules : A Journal of Synthetic Chemistry and Natural …, 2017)
Values after ≈ are worked out from the molar mass of the structure shown. Where two headings read alike, the source gives them in different places.

How the values were obtained:
[1] = Cytotoxicity assay, CellTiter 96 Aqueous One Solution; type: cell-based; settings: human; HepG2 cells, 24 h exposure
Description: The human liver hepatocellular carcinoma cell line HepG2 (passage 35–36), purchased from Health Protection Agency Culture Collections (ECACC, Salisbury, UK), was routinely cultured in Minimum Essential Eagle Medium MEM (Sigma-Aldrich) supplemented with 10% fetal bovine serum (PAA Laboratories GmbH, Pasching, Austria), 2mM L-glutamine solution (Sigma-Aldrich), and 1% non-essential amino acid solution (Sigma-Aldrich), in a humidified atmosphere containing 5% CO2 at 37 °C.
For subculturing, the cells were harvested after trypsin/EDTA (Sigma-Aldrich) treatment at 37 °C. To evaluate the cytotoxicity, the HepG2 cells treated with the tested substances were used as experimental groups, whereas untreated HepG2 cells served as control groups.
The HepG2 cells were seeded in a density of 1 × 10^4 cells per well on a 96-well plate. The following day (24 h after seeding), they were treated with tested substances dissolved in DMSO (maximal incubation concentration of DMSO was 1%). […] The treatment was carried out in a humidified atmosphere containing 5% CO2 at 37 °C, in triplicate, for 24 h. The controls representing 100% cell viability, 0% cell viability (the cells treated with 10% DMSO), no-cell controls, and vehiculum controls were incubated in triplicate, simultaneously. After 24 h exposure, the reagent from the kit CellTiter 96® Aqueous One Solution Cell Proliferation Assay (Promega) was added, according to the recommendation of the manufacturer. After 2 h incubation at 37 °C in humidified, 5% CO2 atmosphere, the absorbance was recorded at 490 nm. Inhibitory curves were constructed for each compound, plotting incubation concentrations vs. percentage of absorbance relative to untreated control. The standard toxicological parameter IC50 was calculated by a nonlinear regression analysis of the inhibitory curves using GraphPad Prism software (version 6, GraphPad Software, Inc., La Jolla, CA, USA).

[2] = Determination of lipophilicity by RP-HPLC (log k); settings: RP-HPLC capacity factor, MeOH 70% / H2O 30%, C18, 30 °C
Description: Log k was determined using an Agilent Technologies 1200 SL liquid chromatograph with Diode-array Detector SL G1315C (Agilent Technologies Inc., Colorado Springs, CO, USA), with pre-column ZORBAX XDB-C18 5 μm, 4 mm × 4 mm, Part No. 7995118-504 (Agilent Technologies Inc.) and column ZORBAX Eclipse XDB-C18 5 μm, 4.6 mm × 250 mm, Part No. 7995118-585 (Agilent Technologies Inc.). The separation process was controlled by Agilent ChemStation, version B.04.02, extended by a spectral module (Agilent Technologies Inc.). The mobile phase consisted of MeOH (HPLC grade, 70%) and H2O (HPLC-Milli-Q Grade, 30%).
The flow rate was 1.0 mL/min, samples were injected in a volume of 20 μL, and the column temperature was 30 °C. A value of 210 nm as the detection wavelength and 270 nm as the monitor wavelength were used. Retention times (tR) were measured in minutes. The dead time of the system (tD) was determined as the retention time of the KI methanol solution. Capacity factors k for individual compounds were calculated according to the formula k = (tR − tD)/tD. Log k, calculated from the capacity factor k, as used as the lipophilicity index converted to log scale.

[3] = test system: Mycobacterium tuberculosis H37Rv; test: Microplate Alamar Blue Assay (MABA), microdilution panel method; type: cell-based
[4] = test system: Mycobacterium smegmatis CCM 4622 (ATCC 607); test: Antimycobacterial screening, microdilution broth panel method with resazurin; type: cell-based; settings: Mycolicibacterium smegmatis, 48 h + 4 h
Description: An antimycobacterial assay was performed with fast growing Mycobacterium smegmatis CCM 4622 (ATCC 607) from the Czech Collection of Microorganisms (Brno, Czech Republic). The technique used for activity determination was a microdilution broth panel method using 96-well microtitration plates. The culturing medium was Middlebrook 7H9 (MB) broth (Sigma-Aldrich), enriched with 0.4% of glycerol (Sigma-Aldrich) and 10% of Middlebrook OADC growth supplement (Himedia, Mumbai, India). Tested compounds were dissolved in DMSO (Sigma-Aldrich), and the MB broth was then added to obtain a concentration of 2000 μg·mL^−1. Standards used for activity determination were isoniazid (INH), rifampicin (RIF), and ciprofloxacin (CPX) (Sigma-Aldrich). Final concentrations were reached by binary dilution and the addition of mycobacterial suspension, and were set as 500, 250, 125, 62.5, 31.25, 15.625, 7.81, and 3.91 μg·mL^−1, except for the standards of ciprofloxacin and rifampicin, where the final concentrations were 12.5, 6.25, 3.125, 1.56, 0.78, 0.39, 0.195, and 0.098 μg·mL^−1. […] Plates were also sealed with polyester adhesive film and incubated in the dark at 37 °C, without agitation. The addition of 0.01% solution of resazurin sodium salt followed after 48 h. This stain was prepared by dissolving resazurin sodium salt (Sigma-Aldrich) in deionised water, producing a 0.02% solution. Then, a 10% aqueous solution of Tween 80 (Sigma-Aldrich) was prepared. Both liquids were mixed up making use of the same volumes and filtered through a syringe membrane filter. Microtitration panels were then incubated for a further 4 h. Antimycobacterial activity was expressed as the minimal inhibition concentration (MIC) and the value was read on the basis of stain colour change (blue colour—active compound; pink colour—not active compound). […] All experiments were conducted in duplicate.

[5] = test system: Staphylococcus aureus CCM 4516/08; test: Antibacterial microdilution broth method; type: cell-based; settings: CCM4516, 24 h, read-out: MIC after 24 h S. aureus
Description: (§1) Microdilution broth method. Antibacterial evaluation was performed against eight bacterial strains from the Czech Collection of Microorganisms (Brno, Czech Republic) (Staphylococcus aureus CCM 4516/08, Escherichia coli CCM 4517, Pseudomonas aeruginosa CCM 1961) or clinical isolates from the Department of Clinical Microbiology, University Hospital and Faculty of Medicine in Hradec Králové, Charles University in Prague, Czech Republic (Staphylococcus aureus H 5996/08-methicilin resistant (MRSA), Staphylococcus epidermidis H 6966/08, Enterococcus sp. J 14365/08, Klebsiella pneumoniae D 11750/08, Klebsiella pneumoniae J 14368/08-ESBL positive). All strains were subcultured on Mueller-Hinton agar (MHA) (Difco/Becton Dickinson, Detroit, MI, USA) at 35 °C and maintained on the same medium at 4 °C. The compounds were dissolved in DMSO, and the antibacterial activity was determined in Mueller-Hinton liquid broth (Difco/Becton Dickinson), and buffered to pH 7.0. Controls consisted of medium and DMSO alone. […] The minimum inhibitory concentration (MIC), defined as the minimum concentration to prevent the visible growth compared to control, was determined after 24 and 48 h of static incubation at 35 °C. The standards were neomycin, bacitracin, penicillin G, ciprofloxacin, and phenoxymethylpenicillin.

[6] = test system: Staphylococcus epidermidis H 6966/08; test: Antibacterial microdilution broth method; type: cell-based; settings: read-out: MIC after 24 h S. epidermidis
Description: as §1

[7] = test system: Staphylococcus aureus H 5996/08-methicilin resistant (MRSA); test: Antibacterial microdilution broth method; type: cell-based; settings: 24 h, read-out: MIC after 24 h MRSA
Description: as §1

[8] = Staphylococcus epidermidis, H6966/08, 24 h

Compound | IC50 at 24 h [1] [µM] | Log k [2] | MIC ([3]; pH 6.6) [µg/mL] | MIC ([3]; value in parentheses) [µM] | MIC [4] [µg/mL] | MIC [5] [µM] | MIC [6, 8] [µM] | MIC ([7]; Staphylococcus aureus, MRSA) [µM] | MIC ([6]; 24 h) [µM] | MIC [7] [µM]
O=C(NCc1ccc(Cl)c(Cl)c1)c1nccnc1NCc1ccc(Cl)c(Cl)c1 [Compound 9a, N-(3,4-Dichlorobenzyl)-3-((3,4-dichlorobenzyl)amino)pyrazine-2-carboxamide] | > 100 | 1.997 | 12.5 | 27 | > 500 | – | – | – | – | –
COc1ccc(CNC(=O)c2nccnc2Cl)cc1 [Compound 3, 3-Chloro-N-(4-methoxybenzyl)pyrazine-2-carboxamide] | – | −0.202 | 25 | 90 | 125 | 31.2 (≈ 8.68 µg/mL) | 250 (≈ 69.4 µg/mL) | 125 (≈ 34.7 µg/mL) | – | –
O=C(NCc1ccc(F)cc1)c1nccnc1NCc1ccc(F)cc1 [Compound 11a, N-(4-Fluorobenzyl)-3-((4-fluorobenzyl)amino)pyrazine-2-carboxamide] | – | 1.058 | > 100 | – | > 500 | – | – | – | – | –
Cc1ccccc1CNC(=O)c1nccnc1Cl [Compound 1, 3-Chloro-N-(2-methylbenzyl)pyrazine-2-carboxamide] | – | 0.009 | > 100 | – | 250 | – | – | – | – | –
O=C(NCc1ccc(C(F)(F)F)cc1)c1nccnc1NCc1ccc(C(F)(F)F)cc1 [Compound 13a, N-(4-(Trifluoromethyl)benzyl)-3-((4-(trifluoromethyl)benzyl)amino)pyrazine-2-carboxamide] | – | 1.593 | > 100 | – | > 500 | 62.5 (≈ 28.4 µg/mL) | > 500 | > 500 | – | –
neomycin [reference compound] | – | – | – | – | – | – | – | – | 7.81 | 0.98
Cc1ccc(CNC(=O)c2nccnc2NCc2ccc(C)cc2)cc1 [Compound 2a, N-(4-Methylbenzyl)-3-((4-methylbenzyl)amino)pyrazine-2-carboxamide] | – | 1.517 | 25 | 72 | > 250 | – | – | – | – | –
O=C(NCc1cccc(Cl)c1)c1nccnc1Cl [Compound 6, 3-Chloro-N-(3-chlorobenzyl)pyrazine-2-carboxamide] | – | 0.060 | 100 | – | 125 | – | – | – | – | –
Cc1ccc(CNC(=O)c2nccnc2Cl)cc1 [Compound 2, 3-Chloro-N-(4-methylbenzyl)pyrazine-2-carboxamide] | – | 0.033 | > 100 | – | > 500 | 125 (≈ 32.7 µg/mL) | 500 (≈ 131 µg/mL) | > 500 | – | –
O=C(NCc1ccc(Cl)cc1)c1nccnc1Cl [Compound 7, 3-Chloro-N-(4-chlorobenzyl)pyrazine-2-carboxamide] | – | 0.082 | > 100 | – | 500 | – | – | – | – | –
O=C(NCc1ccccc1Cl)c1nccnc1NCc1ccccc1Cl [Compound 5a, N-(2-Chlorobenzyl)-3-((2-chlorobenzyl)amino)pyrazine-2-carboxamide] | – | 1.542 | > 100 | – | > 500 | – | – | – | – | –
O=C(NCc1ccc(Cl)cc1Cl)c1nccnc1Cl [Compound 8, 3-Chloro-N-(2,4-dichlorobenzyl)pyrazine-2-carboxamide] | – | 0.375 | > 100 | – | 125 | 125 (≈ 39.6 µg/mL) | 125 (≈ 39.6 µg/mL) | 250 (≈ 79.1 µg/mL) | – | –
CO[C@H]1/C=C/O[C@@]2(C)Oc3c(C)c(O)c4c(O)c(c(/C=N/N5CCN(C)CC5)c(O)c4c3C2=O)NC(=O)/C(C)=C\C=C\[C@H](C)[C@H](O)[C@@H](C)[C@@H](O)[C@@H](C)[C@H](OC(C)=O)[C@@H]1C [RIF, rifampicin, reference compound] | – | – | – | – | 0.78 to 1.56 | – | – | – | – | –
COc1ccc(CNC(=O)c2nccnc2Cl)c(OC)c1 [Compound 4, 3-Chloro-N-(2,4-dimethoxybenzyl)pyrazine-2-carboxamide] | – | −0.095 | > 100 | – | > 500 | 125 (≈ 38.5 µg/mL) | > 500 | > 500 | – | –
O=C(O)c1cn(C2CC2)c2cc(N3CCNCC3)c(F)cc2c1=O [CPX, ciprofloxacin, reference compound] | – | – | – | – | 0.098 to 0.195 | – | – | – | – | –
CC1(C)S[C@@H]2[C@H](NC(=O)COc3ccccc3)C(=O)N2[C@H]1C(=O)O [Penicillin V, phenoxymethylpenicillin, reference compound] | – | – | – | – | – | 0.12 (≈ 0.042 µg/mL) | 3.9 (≈ 1.37 µg/mL) | 62.5 (≈ 21.9 µg/mL) | – | –
O=C(NCc1ccccc1F)c1nccnc1NCc1ccccc1F [Compound 10a, N-(2-Fluorobenzyl)-3-((2-fluorobenzyl)amino)pyrazine-2-carboxamide] | – | 1.108 | > 100 | – | > 500 | – | – | – | – | –
O=C(NCc1ccccc1F)c1nccnc1Cl [Compound 10, 3-Chloro-N-(2-fluorobenzyl)pyrazine-2-carboxamide] | – | −0.154 | > 100 | – | 125 | – | – | – | – | –
O=C(NCc1cccc(C(F)(F)F)c1)c1nccnc1Cl [Compound 12, 3-Chloro-N-(3-(trifluoromethyl)benzyl)pyrazine-2-carboxamide] | – | 0.110 | > 100 | – | 125 | – | – | – | – | –
O=C(NCc1ccc(F)cc1)c1nccnc1Cl [Compound 11, 3-Chloro-N-(4-fluorobenzyl)pyrazine-2-carboxamide] | – | −0.139 | > 100 | – | 250 | – | – | – | – | –
O=C(NCc1cccc(Cl)c1)c1nccnc1NCc1cccc(Cl)c1 [Compound 6a, N-(3-Chlorobenzyl)-3-((3-chlorobenzyl)amino)pyrazine-2-carboxamide] | – | 1.515 | > 100 | – | > 500 | – | – | – | – | –
O=C(NCc1ccc(C(F)(F)F)cc1)c1nccnc1Cl [Compound 13, 3-Chloro-N-(4-(trifluoromethyl)benzyl)pyrazine-2-carboxamide] | – | 0.145 | > 100 | – | > 500 | 31.2 (≈ 9.87 µg/mL) | 62.5 (≈ 19.7 µg/mL) | 500 (≈ 158 µg/mL) | – | –
O=C(NCc1ccc(Cl)c(Cl)c1)c1nccnc1Cl [Compound 9, 3-Chloro-N-(3,4-dichlorobenzyl)pyrazine-2-carboxamide] | – | 0.309 | 100 | – | 250 | 62.5 (≈ 19.8 µg/mL) | 31.2 (≈ 9.89 µg/mL) | 250 (≈ 79.1 µg/mL) | – | –
